Measured values: ChEMBL document CHEMBL3580555, “Design, Synthesis, and Biological Evaluation of Novel Imidazo[1,2-a]pyridine Derivatives as Potent c-Met Inhibitors” (ACS Med Chem Lett, 2015)

Columns and labels:
[1] = Antiproliferative activity against human SNU5 cells after 72 hrs; type: functional, cell-based; conditions: SNU-5, 72 h
BaF3 = assay: Antiproliferative activity against mouse BAF3/TPR-Met cells after 72 hrs; type: functional, cell-based; conditions: BaF3, 72 h
[2] = Antiproliferative activity against human MKN45 cells after 72 hrs; type: functional, cell-based; conditions: MKN-45, 72 h
[3] = Antiproliferative activity against human EBC1 cells after 72 hrs; conditions: EBC-1, 72 h
[4] = target: Hepatocyte growth factor receptor (Homo sapiens) (UniProt P08581); assay: Inhibition of C-Met (unknown origin) using polu (Glu,Tyr)4:1 substrate at 100 uM after 30 mins incubation by multi-well spectrophotometry
Chain of Hepatocyte growth factor receptor (Homo sapiens) (P08581 whole entry): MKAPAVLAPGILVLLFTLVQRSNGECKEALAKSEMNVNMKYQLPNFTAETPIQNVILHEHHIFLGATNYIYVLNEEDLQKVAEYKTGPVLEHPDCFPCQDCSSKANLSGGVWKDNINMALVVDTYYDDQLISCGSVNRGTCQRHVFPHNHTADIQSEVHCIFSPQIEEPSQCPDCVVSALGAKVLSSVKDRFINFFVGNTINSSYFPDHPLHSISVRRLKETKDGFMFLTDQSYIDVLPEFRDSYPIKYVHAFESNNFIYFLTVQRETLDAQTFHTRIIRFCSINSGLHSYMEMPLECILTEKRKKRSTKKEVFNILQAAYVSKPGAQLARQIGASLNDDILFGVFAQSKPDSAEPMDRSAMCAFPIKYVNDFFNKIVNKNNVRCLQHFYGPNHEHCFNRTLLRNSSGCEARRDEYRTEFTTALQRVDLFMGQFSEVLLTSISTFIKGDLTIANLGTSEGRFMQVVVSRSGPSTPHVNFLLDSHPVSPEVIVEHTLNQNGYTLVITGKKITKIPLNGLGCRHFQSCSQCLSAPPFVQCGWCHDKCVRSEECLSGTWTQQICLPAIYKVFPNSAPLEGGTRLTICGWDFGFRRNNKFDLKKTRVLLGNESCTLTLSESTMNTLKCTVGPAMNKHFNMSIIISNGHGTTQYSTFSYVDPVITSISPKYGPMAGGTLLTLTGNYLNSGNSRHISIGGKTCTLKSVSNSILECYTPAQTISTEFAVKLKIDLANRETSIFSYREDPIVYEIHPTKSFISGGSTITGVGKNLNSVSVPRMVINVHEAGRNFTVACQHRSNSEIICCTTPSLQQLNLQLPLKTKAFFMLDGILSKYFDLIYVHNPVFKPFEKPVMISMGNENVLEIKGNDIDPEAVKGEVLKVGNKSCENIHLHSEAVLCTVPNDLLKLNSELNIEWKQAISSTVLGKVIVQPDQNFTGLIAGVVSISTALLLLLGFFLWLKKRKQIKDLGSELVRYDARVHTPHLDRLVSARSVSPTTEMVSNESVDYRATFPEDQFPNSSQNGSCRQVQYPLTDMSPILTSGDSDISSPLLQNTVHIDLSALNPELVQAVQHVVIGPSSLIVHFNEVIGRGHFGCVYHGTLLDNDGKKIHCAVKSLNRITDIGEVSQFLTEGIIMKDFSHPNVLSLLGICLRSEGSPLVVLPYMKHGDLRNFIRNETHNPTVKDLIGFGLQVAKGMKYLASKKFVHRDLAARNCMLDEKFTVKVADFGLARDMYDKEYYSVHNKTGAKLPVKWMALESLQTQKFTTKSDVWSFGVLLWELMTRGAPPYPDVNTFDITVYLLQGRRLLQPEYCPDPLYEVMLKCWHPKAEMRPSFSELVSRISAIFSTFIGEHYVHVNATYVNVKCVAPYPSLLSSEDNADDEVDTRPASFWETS

Structure (SMILES)	IC50 [3] [nM]	further results
Cn1cc(-c2ccc3nnc(C(F)(F)c4ccc5ncccc5c4)n3n2)cn1 [JNJ-38877605]	9.5	IC50 [1]: 15.8 nM; IC50 (BaF3): 17.6 nM; IC50 [2]: 10.9 nM
O=C(NCCCN1CCCC1)c1ccc(-c2cc(F)c3ncc(Cc4ccc5ncccc5c4)n3c2)cc1F	161	
OCCn1cc(-c2cc(F)c3ncc(Cc4ccc5ncccc5c4)n3c2)cn1	340	
CNC(=O)c1cc(-c2cc(F)c3ncc(Cc4ccc5ncccc5c4)n3c2)ccc1F	246	
Cn1cc(-c2cc(C#N)c3ncc(Cc4ccc5ncccc5c4)n3c2)cn1		inhibition [4]: 34.5%
Fc1cc(-c2ccsc2)cn2c(Cc3ccc4ncccc4c3)cnc12	444	
O=C(NCc1cc(F)cc(F)c1)c1ccc(-c2cc(F)c3ncc(Cc4ccc5ncccc5c4)n3c2)cc1F	53.6	
O=C(NCC1CCCCN1)c1ccc(-c2cc(F)c3ncc(Cc4ccc5ncccc5c4)n3c2)cc1F (stereo not drawn)	277	
COc1ccc(-c2cc(F)c3ncc(Cc4ccc5ncccc5c4)n3c2)cc1F	407	
O=C(NCc1ccccn1)c1ccc(-c2cc(F)c3ncc(Cc4ccc5ncccc5c4)n3c2)cc1F	5550	
O=C(c1ccc(-c2cc(F)c3ncc(Cc4ccc5ncccc5c4)n3c2)cc1F)N1CCC2(COC2)C1	406	
C[C@@H](Oc1cc(-c2cnn(C3CCNCC3)c2)cnc1N)c1c(Cl)ccc(F)c1Cl [CRIZOTINIB]	21.8	IC50 [1]: 20.4 nM; IC50 (BaF3): 127 nM; IC50 [2]: 38.1 nM
CNC(=O)c1ccc(-c2cc(F)c3ncc(Cc4ccc5ncccc5c4)n3c2)cc1OC	59.6	
N#Cc1ccc(-c2cc(F)c3ncc(Cc4ccc5ncccc5c4)n3c2)cc1F	145	
Fc1cc(F)cc(-c2cc(F)c3ncc(Cc4ccc5ncccc5c4)n3c2)c1	790	
Cn1cc(-c2cn3c(Cc4ccc5ncccc5c4)cnc3cc2C#N)cn1		inhibition [4]: 33.3%
Fc1cc(-c2ccc(N3CCOCC3)nc2)cn2c(Cc3ccc4ncccc4c3)cnc12	225	
